Measured values published in patent US10538498B2, “1,3,4-oxadiazole sulfonamide derivative compounds as histone deacetylase 6 inhibitor, and the pharmaceutical composition comprising the same” (Chong Kun Dang Pharmaceutical Corp., priority 2015, dated 2020).

Target: T1, human recombinant HDAC6 (Homo sapiens, UniProt Q9UBN7)
T1 construct: purchased Calbiochem 382180
T1 sequence (Q9UBN7 1-1215): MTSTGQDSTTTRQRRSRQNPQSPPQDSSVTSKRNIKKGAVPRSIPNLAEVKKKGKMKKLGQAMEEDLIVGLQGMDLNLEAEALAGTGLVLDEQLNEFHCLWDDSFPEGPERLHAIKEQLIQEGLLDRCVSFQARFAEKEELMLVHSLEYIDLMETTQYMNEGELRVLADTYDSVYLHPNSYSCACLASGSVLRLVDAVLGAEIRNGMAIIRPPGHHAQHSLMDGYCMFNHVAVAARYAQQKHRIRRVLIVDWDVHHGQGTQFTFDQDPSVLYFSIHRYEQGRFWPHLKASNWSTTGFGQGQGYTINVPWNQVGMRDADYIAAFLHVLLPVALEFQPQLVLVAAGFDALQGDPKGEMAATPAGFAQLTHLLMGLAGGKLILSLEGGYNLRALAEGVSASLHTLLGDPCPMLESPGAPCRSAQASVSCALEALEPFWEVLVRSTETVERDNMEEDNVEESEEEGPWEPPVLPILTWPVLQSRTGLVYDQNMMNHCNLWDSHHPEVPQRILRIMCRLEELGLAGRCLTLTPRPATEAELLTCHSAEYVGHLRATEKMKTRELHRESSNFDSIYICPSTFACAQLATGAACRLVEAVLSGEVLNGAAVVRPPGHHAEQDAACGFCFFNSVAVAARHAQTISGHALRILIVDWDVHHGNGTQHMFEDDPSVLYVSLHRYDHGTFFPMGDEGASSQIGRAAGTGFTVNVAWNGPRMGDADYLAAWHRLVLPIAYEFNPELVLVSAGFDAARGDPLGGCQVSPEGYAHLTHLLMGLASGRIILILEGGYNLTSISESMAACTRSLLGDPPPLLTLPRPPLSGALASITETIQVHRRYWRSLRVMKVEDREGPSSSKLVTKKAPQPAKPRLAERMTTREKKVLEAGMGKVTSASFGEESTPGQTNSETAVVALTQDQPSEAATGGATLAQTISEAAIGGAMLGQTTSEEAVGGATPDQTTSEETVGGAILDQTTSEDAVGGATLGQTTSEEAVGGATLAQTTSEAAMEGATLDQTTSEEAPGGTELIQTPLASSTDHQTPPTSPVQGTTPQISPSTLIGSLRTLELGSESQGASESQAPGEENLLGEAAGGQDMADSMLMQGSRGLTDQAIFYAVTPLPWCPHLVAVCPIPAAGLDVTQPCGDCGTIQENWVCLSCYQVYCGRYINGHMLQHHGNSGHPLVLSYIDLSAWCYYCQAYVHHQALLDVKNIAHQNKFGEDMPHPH
Assay: HDAC6 enzyme activity inhibition assay (HDAC Fluorimetric Drug Discovery Kit)
Format: biochemical
Conditions: for HDAC6 selectivity (fold): HDAC1 vs HDAC6; for IC50: same protocol as the HDAC1 enzyme activity test
Procedure, shortened: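 IC50s derived from fluorescence (Ex 360, Em 460) read after a 30-min developer step. Beforehand, compounds in 5-fold dilution series reacted 60 min at 30° C with 0.3 μg human recombinant enzyme and 10 μM Fluor de Lys-SIRT1 substrate.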

Structure (SMILES)	HDAC6 selectivity (fold)	IC50
CS(=O)(=O)N(Cc1ccc(-c2nnc(C(F)F)o2)cn1)CC12CC3CC(CC(C3)C1)C2 [Compound 11669, N-((adamantan-1-yl)methyl)-N-((5-(5-(difluoromethyl)-1,3,4-oxadiazol-2-yl)pyridin-2-yl)methyl)methanesulfonamide]	900 fold	111 nM
CC1CCN(CCS(=O)(=O)N(Cc2ccc(-c3nnc(C(F)F)o3)cc2)c2ccccc2)CC1 [Compound 11675, N-(4-(5-(difluoromethyl)-1,3,4-oxadiazol-2-yl)benzyl)-2-(4-methylpiperidin-1-yl)-N-phenylethanesulfonamide]	549 fold	182 nM
O=C(OCC1CCN(CCS(=O)(=O)N(Cc2ccc(-c3nnc(C(F)F)o3)cc2)c2ccccc2)CC1)C(F)F [Compound 11676, (1-(2-(N-(4-(5-(difluoromethyl)-1,3,4-oxadiazol-2-yl)benzyl)-N-Phenylsulfamoyl)ethyl)piperidin-4-yl)methyl 2,2-difluoroacetate]	1408 fold	71 nM
CC(C)(C)OC(=O)N(C(=O)C(F)F)C1CCN(CCS(=O)(=O)N(Cc2ccc(-c3nnc(C(F)F)o3)cc2)c2ccccc2)CC1 [Compound 11677, tert-butyl 2,2-difluoroacetyl(1-(2-(N-(4-(5-(difluoromethyl)-1,3,4-oxadiazol-2-yl)benzyl)-N-phenylsulfamoyl)ethyl)piperidin-4-yl)carbamate]	1754 fold	57 nM
O=S(=O)(C1CCN(C2COC2)CC1)N(Cc1ccc(-c2nnc(C(F)F)o2)cc1)c1cccc(Cl)c1 [Compound 11681, N-(3-chlorophenyl)-N-(4-(5-(difluoromethyl)-1,3,4-oxadiazol-2-yl)benzyl)-1-(oxetan-3-yl)piperidine-4-sulfonamide]	6667 fold	15 nM
Cc1cccc(N(Cc2ccc(-c3nnc(C(F)F)o3)cc2)S(=O)(=O)C2CCN(C3COC3)CC2)c1 [Compound 11682, N-(4-(5-(difluoromethyl)-1,3,4-oxadiazol-2-yl)benzyl)-1-(oxetan-3-yl)-N-(m-tolyl)piperidine-4-sulfonamide]	4545 fold	22 nM
O=S(=O)(C1CCN(C2COC2)CC1)N(Cc1ccc(-c2nnc(C(F)F)o2)cn1)c1cccc(Cl)c1 [Compound 11683, N-(3-chlorophenyl)-N-((5-(5-(difluoromethyl)-1,3,4-oxadiazol-2-yl)pyridin-2-yl)methyl)-1-(oxetan-3-yl)piperidine-4-sulfonamide]	14285 fold	7 nM
Cc1cccc(N(Cc2ccc(-c3nnc(C(F)F)o3)cn2)S(=O)(=O)C2CCN(C3COC3)CC2)c1 [Compound 11684, N-((5-(5-(difluoromethyl)-1,3,4-oxadiazol-2-yl)pyridin-2-yl)methyl)-1-(oxetan-3-yl)-N-(m-tolyl)piperidine-4-sulfonamide]	6250 fold	16 nM
CN(C)CCCS(=O)(=O)N(Cc1ccc(-c2nnc(C(F)F)o2)cc1)c1ccccc1 [Compound 11685, N-(4-(5-(difluoromethyl)-1,3,4-oxadiazol-2-yl)benzyl)-3-(dimethylamino)-N-phenylpropane-1-sulfonamide]	5882 fold	17 nM
Cc1cccc(N(Cc2ccc(-c3nnc(C(F)F)o3)cc2)S(=O)(=O)C2CCN(C3CC4CCC3C4)CC2)c1 (centres unmarked) [Compound 11693, 1-(bicyclo[2.2.1]heptan-2-yl)-N-(4-(5-(difluoromethyl)-1,3,4-oxadiazol-2-yl)benzyl)-N-(m-tolyl)piperidine-4-sulfonamide]	198 fold	504 nM
Cc1cccc(N(Cc2ccc(-c3nnc(C(F)F)o3)cc2)S(=O)(=O)C2CCN(C3CCC(F)(F)CC3)CC2)c1 [Compound 11694, 1-(4,4-difluorocyclohexyl)-N-(4-(5-(difluoromethyl)-1,3,4-oxadiazol-2-yl)benzyl)-N-(m-tolyl)piperidine-4-sulfonamide]	215 fold	464 nM
Cc1cccc(N(Cc2ccc(-c3nnc(C(F)F)o3)cc2)S(=O)(=O)C2CCN([C@H]3CC[C@H](C(F)(F)F)CC3)CC2)c1 [Compound 11697, N-(4-(5-(difluoromethyl)-1,3,4-oxadiazol-2-yl)benzyl)-N-(m-tolyl)-1-((1r,4r)-4-(trifluoromethyl)cyclohexyl)piperidine-4-sulfonamide]	101 fold	988 nM
Cc1cccc(N(Cc2ccc(-c3nnc(C(F)F)o3)cc2)S(=O)(=O)C2CCN([C@H]3CC[C@@H](C(F)(F)F)CC3)CC2)c1 [Compound 11698, N-(4-(5-(difluoromethyl)-1,3,4-oxadiazol-2-yl)benzyl)-N-(m-tolyl)-1-((1s,4s)-4-(trifluoromethyl)cyclohexyl)piperidine-4-sulfonamide]	151 fold	661 nM
Cc1cccc(N(Cc2ccc(-c3nnc(C(F)F)o3)cc2)S(=O)(=O)C2CCN(C3CCOCC3)CC2)c1 [Compound 11699, N-(4-(5-(difluoromethyl)-1,3,4-oxadiazol-2-yl)benzyl)-1-(tetrahydro-2H-pyran-4-yl)-N-(m-tolyl)piperidine-4-sulfonamide]	776 fold	129 nM
O=S(=O)(CCN1CCCC(O)C1)N(Cc1ccc(-c2nnc(C(F)F)o2)cc1)c1ccccc1 (centres unmarked) [Compound 11700, N-(4-(5-(difluoromethyl)-1,3,4-oxadiazol-2-yl)benzyl)-2-(3-hydroxypiperidin-1-yl)-N-phenylethanesulfonamide]	782 fold	128 nM
O=S(=O)(CCCN1CC[C@H](F)C1)N(Cc1ccc(-c2nnc(C(F)F)o2)cc1)c1ccccc1 [Compound 11705, (S)—N-(4-(5-(difluoromethyl)-1,3,4-oxadiazol-2-yl)benzyl)-3-(3-fluoropyrrolidin-1-yl)-N-phenylpropane-1-sulfonamide]	637 fold	157 nM
O=S(=O)(CCCN1CCC(F)(F)C1)N(Cc1ccc(-c2nnc(C(F)F)o2)cc1)c1ccccc1 [Compound 11706, N-(4-(5-(difluoromethyl)-1,3,4-oxadiazol-2-yl)benzyl)-3-(3,3-difluoropyrrolidin-1-yl)-N-phenylpropane-1-sulfonamide]	150 fold	662 nM
CCS(=O)(=O)N(Cc1ccc(-c2nnc(C(F)F)o2)cn1)c1cccc2c1CN(C)C2 [Compound 11712, N-((5-(5-(difluoromethyl)-1,3,4-oxadiazol-2-yl)pyridin-2-yl)methyl)-N-(2-methylisoindolin-4-yl)ethanesulfonamide]	264 fold	378 nM
O=S(=O)(CCN1CCN(CCO)CC1)N(Cc1ccc(-c2nnc(C(F)F)o2)cc1)c1ccccc1 [Compound 11717, N-(4-(5-(difluoromethyl)-1,3,4-oxadiazol-2-yl)benzyl)-2-(4-(2-hydroxyethyl)piperazin-1-yl)-N-phenylethanesulfonamide]	879 fold	114 nM
O=S(=O)(CCCN1CCOCC1)N(Cc1ccc(-c2nnc(C(F)F)o2)cn1)c1ccccc1 [Compound 11718, N-((5-(5-(difluoromethyl)-1,3,4-oxadiazol-2-yl)pyridin-2-yl)methyl)-3-morpholino-N-phenylpropane-1-sulfonamide]	1353 fold	73.9 nM
O=S(=O)(CCCN1CCC(F)(F)C1)N(Cc1ccc(-c2nnc(C(F)F)o2)cn1)c1ccccc1 [Compound 11719, N-((5-(5-(difluoromethyl)-1,3,4-oxadiazol-2-yl)pyridin-2-yl)methyl)-3-(3,3-difluoropyrrolidin-1-yl)-N-phenylpropane-1-sulfonamide]	1177 fold	84.9 nM
O=S(=O)(CCCN1CCCC1)N(Cc1ccc(-c2nnc(C(F)F)o2)cn1)c1ccc(F)c(Cl)c1 [Compound 11721, N-(3-chloro-4-fluorophenyl)-N-((5-(5-(difluoromethyl)-1,3,4-oxadiazol-2-yl)pyridin-2-yl)methyl)-3-(pyrrolidin-1-yl)propane-1-sulfonamide]	4739 fold	21.1 nM
